Data on 59 compounds can be found in article PMC12040169 (PLOS Biology, 2025).

Molecules are shown by their SMILES.

One data set is described as follows: in vitro. The following applies: human, hela cells, % viability.
With `CC(=O)NCCC(=O)Nc1cc(C)ccc1C` [CBK306115], the viability (usually a read-out of living cells in per cent, often relative to untreated cells) at 28.5 h, 10 µM turned out to be 96.6%.

As for `N#Cc1ccsc1NC(=O)CN1CCC(CNc2ccccn2)C1` (centres unmarked) [CBK306117], the viability at 28.5 h, 10 µM stood at 105%.

For `Cc1ccc(-c2nn(CCC#N)cc2C(=O)N2CCCCC2)cc1` [CBK306119], the viability at 28.5 h, 10 µM stood at 89.6%.

`CC(C)NC(=O)Nc1ccc(C(=O)N(CC#N)C2CC2)cc1` [CBK306120]: the viability at 28.5 h, 10 µM was 90.5%.

As to `Cc1cccn2c(=O)cc(CN3CCC(CNc4ccccn4)C3)nc12` (centres unmarked) [CBK306123], the viability at 28.5 h, 10 µM amounted to 103%.

For `COc1ccnc(N2CCN(C(=O)c3cnn(C)c3)CC2)n1` [CBK306125], the viability at 28.5 h, 10 µM worked out at 90.7%.

For `Cc1cc(NC(=O)CN2CCC(CNc3ncccc3C#N)C2)on1` (centres unmarked) [CBK306127], the viability at 28.5 h, 10 µM turned out to be 87.8%.

As for `Cc1ccnc(NCC2CCN(CC(=O)NC3(C#N)CCCC3)C2)c1` (centres unmarked) [CBK306128], the viability at 28.5 h, 10 µM was 85.8%.

With `Cc1ccc(Cc2cnc(NC(=O)C3CCOCC3)s2)cc1F` [CBK306130], the viability at 28.5 h, 10 µM came out at 77.5%.

On to `Cc1cc(NC(=O)CN(C)C(=O)c2cnc(Cl)c(Cl)c2)no1` [CBK306132], for which the viability at 28.5 h, 10 µM was determined as 101%.

For the compound `O=S1(=O)CCC(c2nc(-c3ccc(Br)o3)no2)C1` (centres unmarked) [CBK306134], the viability at 28.5 h, 10 µM is 77.8%.

On to `CC(=O)Nc1ccc(NCc2ncc(C(C)(C)C)o2)c(Cl)c1` [CBK306135], for which the viability at 28.5 h, 10 µM was 98.6%.

For `Cc1cc(NC(=O)CN2CCC(CSc3ccccc3)C2)no1` (centres unmarked) [CBK306136], the viability at 28.5 h, 10 µM amounted to 92.4%.

Consider `CCc1cnc(CN(C)C2CCN(CC(=O)NCc3ccco3)C2)o1` (centres unmarked) [CBK306137], for which the viability at 28.5 h, 10 µM stood at 94.8%.

As for `C#CCNS(=O)(=O)c1cccc(C(=O)N2CCOC(CC(=O)OC)C2)c1` (centres unmarked) [CBK306138], the viability at 28.5 h, 10 µM turned out to be 90.8%.

Turning to `CCNC(=O)CN1CCN(C(=O)C(C)(C)c2cccc(C#N)c2)CC1` [CBK306141], the viability at 28.5 h, 10 µM came to 96.4%.

In the case of `Cc1ccc(OCC(=O)NCC(c2cccs2)N2CCOCC2)cc1C` (centres unmarked) [CBK306143], the viability at 28.5 h, 10 µM came to 93.3%.

For the compound `CC(C)C(=O)Nc1sc2c(c1C(=O)NCc1cccnc1)CCC2` [CBK306144], the viability at 28.5 h, 10 µM worked out at 80.3%.

For the compound `CCn1cc(CN2CCCN(C(=O)c3cc(C)on3)CC2)cn1` [CBK306145], the viability at 28.5 h, 10 µM turned out to be 88.1%.

As for `CC1CCCCN1C(=O)Cn1cnc2c(Cl)cc(Cl)cc2c1=O` (centres unmarked) [CBK306149], the viability at 28.5 h, 10 µM was determined as 90.3%.

Turning to `CC(C)N(Cc1cccnc1)C(=O)Cn1c(C2CC2)nc2ccccc21` [CBK306156], the viability at 28.5 h, 10 µM is 104%.

Turning to `CCNS(=O)(=O)c1ccc2c(c1)N(Cc1csnn1)CC2` [CBK306161], the viability at 28.5 h, 10 µM was 74.3%.

Regarding `Cc1nn(CCS(C)(=O)=O)c(C)c1CN1CCOC(c2ccccc2)C1` (centres unmarked) [CBK306162], the viability at 28.5 h, 10 µM stood at 80.4%.

For the compound `O=C(NCC1(CCO)CC1)c1c[nH]nc1-c1cc2ccccc2o1` [CBK306163], the viability at 28.5 h, 10 µM came to 94.5%.

On to `O=C(Cn1cnc(-c2nccs2)n1)N1CCCCCC1` [CBK306165], for which the viability at 28.5 h, 10 µM stood at 97.5%.

Turning to `CCCCOc1ccc(C(=O)N(C)c2cnn(C)c2)c(O)c1` [CBK306167], the viability at 28.5 h, 10 µM turned out to be 89.5%.

Turning to `CCCc1ccc(S(=O)(=O)N2CCOC(c3cnn(CC)c3)C2)cc1` (centres unmarked) [CBK306169], the viability at 28.5 h, 10 µM is 83.4%.

As to `CN1CCCc2ccc(S(=O)(=O)NCCc3cn4ccccc4n3)cc21` [CBK306170], the viability at 28.5 h, 10 µM was determined as 82.8%.

Turning to `CCn1cc(C2CN(S(=O)(=O)c3c(C)c(C)cc(C)c3C)CCO2)cn1` (centres unmarked) [CBK306171], the viability at 28.5 h, 10 µM came out at 63.8%.

Consider `CNS(=O)(=O)c1cccc2c1CCN(C(=O)NC1CCOC1)C2` (centres unmarked) [CBK306172], for which the viability at 28.5 h, 10 µM came to 106%.

Turning to `O=C(NC1CCCN(CC(F)(F)F)C1=O)c1cnc(-c2ccncc2)s1` (centres unmarked) [CBK306175], the viability at 28.5 h, 10 µM was 82.6%.

In the case of `CCOc1cc(NC2CCN(C(=O)C(C)CC3CCCC3)CC2)ncn1` (centres unmarked) [CBK306176], the viability at 28.5 h, 10 µM stood at 85.3%.

With `CS(=O)(=O)c1ccc(-n2nnnc2CN2CCC3(CCCC3)C2)cc1` [CBK306178], the viability at 28.5 h, 10 µM turned out to be 89.4%.

Regarding `CCC1(C)CCCN(Cc2nnnn2-c2ccc(S(C)(=O)=O)cc2)C1` (centres unmarked) [CBK306180], the viability at 28.5 h, 10 µM came to 113%.

As for `CC1(C)CCCN(Cc2nnnn2-c2ccc(S(C)(=O)=O)cc2)C1` [CBK306181], the viability at 28.5 h, 10 µM was 91.7%.

In the case of `CS(=O)(=O)c1ccc(-n2nnnc2CN2CCC3(CCCCC3)C2)cc1` [CBK306183], the viability at 28.5 h, 10 µM turned out to be 91.1%.

In the case of `CCN(CC)S(=O)(=O)c1ccc(CNC(=O)Cc2ccc(Cl)cc2)cc1` [CBK306188], the viability at 28.5 h, 10 µM amounted to 105%.

On to `N#CCCn1cc(C(=O)N2CCOCC2)c(-c2ccc(F)cc2)n1` [CBK306189], for which the viability at 28.5 h, 10 µM stood at 95.5%.

Regarding `O=C(O)c1cc(S(=O)(=O)NCc2ccco2)ccc1Br` [CBK306193], the viability at 28.5 h, 10 µM amounted to 83.7%.

Turning to `N#CCCn1cc(C(=O)N2CCCCC2)c(-c2cccs2)n1` [CBK306194], the viability at 28.5 h, 10 µM turned out to be 86.5%.

Consider `N#CCCn1cc(C(=O)N2CCOCC2)c(-c2cccs2)n1` [CBK306195], for which the viability at 28.5 h, 10 µM was 110%.

As to `Cc1cc(C(=O)CSc2nnc(CN3CCCC3)o2)c(C)n1C1CC1` [CBK306199], the viability at 28.5 h, 10 µM was 84%.

Take `CCOCCn1c(N2CC(C)CC(C)C2)nc2c1c(=O)[nH]c(=O)n2C` (centres unmarked) [CBK306200]: the viability at 28.5 h, 10 µM came out at 83.6%.

Take `N#CCCn1cc(C(=O)N2CCCCC2)c(-c2cccc(Br)c2)n1` [CBK306202]: the viability at 28.5 h, 10 µM was 89.4%.

As to `N#CCCn1cc(C(N)=O)c(-c2cc3ccccc3o2)n1` [CBK306204], the viability at 28.5 h, 10 µM was determined as 92.9%.

For the compound `CC1CCCCC12NC(=O)N(Cc1nnc(-c3cccs3)o1)C2=O` (centres unmarked) [CBK306205], the viability at 28.5 h, 10 µM came to 82.9%.

With `N#CCCn1cc(C(=O)N2CCCCC2)c(-c2cc3ccccc3o2)n1` [CBK306206], the viability at 28.5 h, 10 µM was 95.1%.

`N#CCCn1cc(C(=O)N2CCOCC2)c(-c2cccc(Cl)c2)n1` [CBK306208]: the viability at 28.5 h, 10 µM was determined as 88.2%.

As to `CCOc1ncccc1C(=O)Nc1cnc2c(cnn2C(C)C)c1` [CBK306210], the viability at 28.5 h, 10 µM is 102%.

In the case of `Cc1cc(CNC(=O)CCc2c(C)nc3nc(N)nn3c2C)ccc1F` [CBK306212], the viability at 28.5 h, 10 µM was determined as 91.9%.

As to `CCN1CCOC(CNc2nc(-c3ccncc3)nc3c2CCC3)C1` (centres unmarked) [CBK306215], the viability at 28.5 h, 10 µM worked out at 88.4%.

Regarding `CCOc1ccc(CN(C)C(=O)Nc2cc(C)on2)cc1` [CBK306216], the viability at 28.5 h, 10 µM worked out at 101%.

`CC(=O)Nc1ccc(CCNC(=O)NCc2nc(C3CC3)no2)cc1` [CBK306221]: the viability at 28.5 h, 10 µM worked out at 96.1%.

For `CC1CCCC(C)N1C(=O)Cn1cnc2c(Cl)cc(Cl)cc2c1=O` (centres unmarked) [CBK306222], the viability at 28.5 h, 10 µM turned out to be 85.7%.

As for `CC(C)(C)OC(=O)N1CCN(Cc2nnc(Cc3ccccc3)o2)CC1` [CBK306223], the viability at 28.5 h, 10 µM was determined as 94.1%.

As for `CC(C)NC(=O)N(C)C1CCN(c2ncnc3ccccc23)CC1` [CBK306224], the viability at 28.5 h, 10 µM came out at 92.4%.

As to `COCCN(CCOC)c1ncc(C#N)cc1Cl` [CBK306227], the viability at 28.5 h, 10 µM is 92.6%.

As for `CCC(C)c1nnc(C2(c3ccc(Br)cc3)CCOCC2)o1` (centres unmarked) [CBK306229], the viability at 28.5 h, 10 µM turned out to be 99.7%.

Staying with this data set, now noted: human, hela cells, % viability, bulk resorufin, single well.
As for `CCCCN1C(=O)C(O)(c2c(C)nn(CCC#N)c2N)c2ccccc21` (centres unmarked) [CBK306211], the viability at 28.5 h, 10 µM worked out at 110%.
